Test results published in PMC4533973, “Synthesis and Evaluation of Chloramphenicol Homodimers: Molecular Target, Antimicrobial Activity, and Toxicity against Human Cells” (PLoS ONE, 2015).

How the values were obtained:
[1] = system: P. aeruginosa (GRE5288); experiment: Antibacterial activity (growth inhibition, EC50); assay type: cell-based, Pseudomonas aeruginosa; details: Pseudomonas aeruginosa; TSB medium; clinical isolate with MexAB-OprM and MexXY efflux; read-out: EC50
Description: (§1) A.S. Mankin (University of Illinois). E. coli ΔtolC strain BL21 DE3 with impaired AcrAB-TolC, a proton-dependent MDR efflux pump causing multidrug resistance, was offered by Dr D.N. Wilson (University of Munich) and included in our study to test if this mechanism of resistance affects the efficacy of CAM dimers. […] I. Spiliopoulou (National Reference Laboratory for Staphylococci, School of Medicine, University of Patras, Greece). Finally, E. coli strain Rosetta(DE3)pLysS, containing a chloramphenicol resistant gene in the pLysS plasmid, was purchased from Novagen and was also included in our study. Briefly, S. aureus or E. coli cells (200 μl of a 0.700 OD560 preculture) containing wild-type or mutant ribosomes were added in 3.8 ml of LB (Luria-Bertani) medium and grown at 37°C in the presence or absence of CAM or CAM dimers until the optical density of the control culture (grown in the absence of drug) reached the value 0.700 at 560 nm. For E. faecium and P. aeruginosa cultures, TSB (Tryptic Soy Broth) medium was used, instead of LB medium, in order to achieve exponential doubling times between 25 and 35 minutes. From dose-response curves, the half-maximal effective concentration (EC50) for each compound and strain was estimated. EC50 represents the molar concentration of a compound that produces 50% of the maximal possible effect. The EC50 values were mathematically determined by non linear regression fitting of the observed culture optical-density values, expressed as the percentage of 0.700 (y), into Hill Equation, y=min+max−min/1+(x/EC50)^−n where min and max are the lowest and highest observed values of the culture optical density, respectively, x the concentration of the tested compound, and n the Hill coefficient that represents the largest absolute value of the curve slope. EC50 is equal to the x- value of the sigmoid’s midpoint. Fitting was performed using the Four Parameter Logistic Curve of the SigmaPlot Program Version 11.0 (Systat Software, Inc) for Exact Graphs and Data Analysis.

[2] = system: E. coli (A2503C); experiment: Antibacterial activity (growth inhibition, EC50); assay type: cell-based, Escherichia coli; details: Escherichia coli
Description: as §1

[3] = system: E. coli Rosetta(DE3)pLysS; experiment: Antibacterial activity (growth inhibition, EC50); assay type: cell-based, Escherichia coli; details: Escherichia coli
Description: as §1

[4] = system: E. coli (ΔtolC); experiment: Antibacterial activity (growth inhibition, EC50); assay type: cell-based, Escherichia coli; details: Escherichia coli, BL21-DE3
Description: as §1

[5] = system: E. coli (A2058G); experiment: Antibacterial activity (growth inhibition, EC50); assay type: cell-based, Escherichia coli; details: Escherichia coli
Description: as §1

[6] = system: E. coli (WT); experiment: Antibacterial activity (growth inhibition, EC50); assay type: cell-based, Escherichia coli; details: for EC50: Escherichia coli, LB medium, 37°C, OD560; for EC50(cell growth)/IC50(puro): wild-type E. coli, IC50(puro) calculated from Ki* at 2 mM puromycin
Description: as §1

[7] = system: MRSA (GRE2272); experiment: Antibacterial activity (growth inhibition, EC50); assay type: cell-based; details: Staphylococcus aureus, LB medium, 37°C, OD560, read-out: EC50
Description: as §1

[8] = system: S. aureus (WT); experiment: Antibacterial activity (growth inhibition, EC50); assay type: cell-based; details: Staphylococcus aureus; LB medium, 37°C, OD560; read-out: EC50
Description: as §1

[9] = system: MRSA (GRE2691); experiment: Antibacterial activity (growth inhibition, EC50); assay type: cell-based; details: Staphylococcus aureus, LB medium, 37°C, OD560, read-out: EC50
Description: as §1

[10] = system: E. faecium (GRE5152); experiment: Antibacterial activity (growth inhibition, EC50); assay type: cell-based; details: Enterococcus faecium; TSB medium, 37°C, OD560; read-out: EC50
Description: as §1

[11] = system: post-translocation ribosomal complex (complex C) derived from E. coli; experiment: Inhibition of peptide-bond formation (puromycin reaction, AcPhe-puromycin synthesis); assay type: biochemical; details: for Ki: 25°C, buffer A; for k off: nonlinear regression of k eq; for activity compared to CAM: ranking by K i*; for k6 / k6/k7 / k7: S1 Table
Procedure: The inhibitory effect of CAM dimers on peptide-bond formation was studied using the puromycin reaction, a model reaction between puromycin and a post-translocation ribosomal complex (complex C) derived from E. coli. Since puromycin, a pseudo-substrate of PTase which binds to the A-site of the catalytic center, was present in excess, the reaction obeyed first-order kinetics. The first-order rate constant, k obs, at each concentration of puromycin was determined by fitting the x values into Eq 1, ln100/100−x=kobst (1) where x is the product AcPhe-puromycin, expressed as the percentage of complex C added in the reaction mixture, and t is the time of the reaction.
A representative time plot obtained at 400 μM puromycin, in the absence of inhibitor, is illustrated in Fig 3A (upper line) and, as expected, is characterized by linearity. However, when the reaction proceeded in the presence of a CAM dimer, e.g. compound 5, the time plots were characterized by two unique features that distinguish them from a typical kinetic behavior. […] Second, the slopes of both progress curves varied as a function of the inhibitor concentration (Fig 3A, four lower curves). […] These kinetic results are consistent with compound 5 operating through an induced fit mechanism (Fig 3C), in which the inhibitor first binds rapidly to complex C to form the encounter complex CI, which then undergoes a slow conformational change to produce a final, tighter complex C*I. Corroborative evidence for the consistency of this model is provided by the hyperbolic shape of the equilibration plots (k eq versus [I]), in which k eq represents the apparent rate constant for the attainment of equilibrium among C, CI, and C*I (Fig 3B). If one-step mechanism of inhibition was applicable (C + I ⇄ C*I), k eq should be a linear function of [I] [27]. […] Because the isomerization constant k on/k off was calculated to be 3.6, the inhibition process was finally associated with high overall inhibition of peptide-bond formation (Ki* = 0.3 μM; S1 Fig, panel C). In addition, the slow k off rate (0.64 min^-1) provided prolonged residence time for compound 5 at the ribosome, a behavior potentially predicting good efficacy in vivo [28].
The puromycin reaction, i.e. the reaction between complex C and excess puromycin (S), was carried out at 25°C in buffer A [100 mM Tris-HCl pH 7.2, 6 mM (CH3COO)2Mg, 100 mM NH4Cl and 6 mM 2-mercaptoethanol]. Under these conditions, the puromycin reaction obeys C + S ⇄KS CS→kcat C^′ + S pseudo-first-order kinetics and was analyzed as previously described.
In the presence of CAM dimers, biphasic semi-logarithmic time plots were obtained. The slope of the straight line through the origin was seen as the value of the apparent rate constant, k obs(early), at the early phase of the reaction. Similarly, the slope of the second straight line was taken as the apparent rate constant, k obs(late), at the late phase of the puromycin reaction.

[12] = overall inhibition constant (CI + C*I)

Compound | EC50 [1] [µM] | EC50 [2] [µM] | EC50 [3] [µM] | EC50 [4] [µM] | EC50 [5] [µM] | EC50 [6] [µM] | EC50(cell growth)/IC50(puro) [6] | EC50 [7] [µM] | EC50 [8] [µM] | EC50 [9] [µM] | EC50 [10] [µM] | Ki ([11]; encounter complex CI) [nM] | k off [11] [min⁻¹] | Ki [11, 12] [nM] | activity compared to CAM [11] | melting point [°C] | k6 [11] [min⁻¹] | k6/k7 [11] | k7 [11] [min⁻¹]
O=C(CC(=O)N[C@H](CO)[C@H](O)c1ccc([N+](=O)[O-])cc1)N[C@H](CO)[C@H](O)c1ccc([N+](=O)[O-])cc1 [Compound 1, N^1,N^3-Bis((1R,2R)-1,3-dihydroxy-1-(4-nitrophenyl)propan-2-yl)malonamide] | > 100 | > 200 | > 200 | > 200 | > 200 | > 200 | >55.5 | > 200 | 32.2 ± 1 | > 200 | > 200 | 2400 ± 180 | 0.60 ± 0.05 | 600 ± 50 | comparable | 142 to 143 | – | – | –
O=C(CCCCCCCC(=O)N[C@H](CO)[C@H](O)c1ccc([N+](=O)[O-])cc1)N[C@H](CO)[C@H](O)c1ccc([N+](=O)[O-])cc1 [Compound 7, N^1,N^9-Bis((1R,2R)-1,3-dihydroxy-1-(4-nitrophenyl)propan-2-yl)nonanediamide] | > 100 | > 200 | > 200 | > 200 | > 200 | > 200 | >11.9 | > 200 | 72.7 ± 11.8 | > 200 | > 200 | 12000 ± 1200 | 0.84 ± 0.06 | 2800 ± 270 | lower | 137 to 139 | – | – | –
O=C(/C=C/C(=O)N[C@H](CO)[C@H](O)c1ccc([N+](=O)[O-])cc1)N[C@H](CO)[C@H](O)c1ccc([N+](=O)[O-])cc1 [Compound 2, N^1,N^4-Bis((1R,2R)-1,3-dihydroxy-1-(4-nitrophenyl)propan-2-yl)fumaramide] | > 100 | > 200 | > 200 | > 200 | > 200 | > 200 | >44.4 | > 200 | 44.4 ± 2.9 | > 200 | > 200 | 2700 ± 250 | 0.70 ± 0.05 | 750 ± 60 | comparable | 207 to 208 | – | – | –
O=C(CCCCCCC(=O)N[C@H](CO)[C@H](O)c1ccc([N+](=O)[O-])cc1)N[C@H](CO)[C@H](O)c1ccc([N+](=O)[O-])cc1 [Compound 6, N^1,N^8-Bis((1R,2R)-1,3-dihydroxy-1-(4-nitrophenyl)propan-2-yl)octane-diamide] | > 100 | > 200 | > 200 | > 200 | > 200 | > 200 | >14.5 | > 200 | 49.6 ± 5.4 | > 200 | > 200 | 10500 ± 900 | 0.80 ± 0.04 | 2300 ± 200 | lower | 131 to 132 | – | – | –
O=C(O)CCCCC(=O)N[C@H](CO)[C@H](O)c1ccc([N+](=O)[O-])cc1 [Compound 10, 6-(((1R,2R)-1,3-dihydroxy-1-(4-nitrophenyl)propan-2-yl)amino)-6-oxohexanoic acid] | – | – | – | – | – | – | – | – | – | – | – | – | – | – | – | – | 2.52 ± 0.40 | 2.25 ± 0.27 | 1.11 ± 0.12
O=C(O)CCCC(=O)N[C@H](CO)[C@H](O)c1ccc([N+](=O)[O-])cc1 [Compound 9, 5-(((1R,2R)-1,3-dihydroxy-1-(4-nitrophenyl)propan-2-yl)amino)-5-oxopentanoic acid] | – | – | – | – | – | – | – | – | – | – | – | – | – | – | – | – | 2.50 ± 0.33 | 1.53 ± 0.18 | 1.63 ± 0.12
O=C(O)c1ccc(C(=O)N[C@H](CO)[C@H](O)c2ccc([N+](=O)[O-])cc2)cc1 [Compound 11, 4-(((1R,2R)-1,3-dihydroxy-1-(4-nitrophenyl)propan-2-yl)carbamoyl)benzoic acid] | – | – | – | – | – | – | – | – | – | – | – | – | – | – | – | – | 2.31 ± 0.48 | 1.63 ± 0.31 | 1.42 ± 0.13
O=C(CCCC(=O)N[C@H](CO)[C@H](O)c1ccc([N+](=O)[O-])cc1)N[C@H](CO)[C@H](O)c1ccc([N+](=O)[O-])cc1 [Compound 3, N^1,N^5-Bis((1R,2R)-1,3-dihydroxy-1-(4-nitrophenyl)propan-2-yl)glutaramide] | 42.4 ± 8.7 | 68.1 ± 13.8 | 65.1 ± 6.6 | 43.7 ± 5.2 | 47.3 ± 6.9 | 52.4 ± 6.8 | 7.28 ± 1.08 | 20.8 ± 2.5 | 17.4 ± 1.3 | 27.2 ± 3.4 | 69.8 ± 14.8 | 4500 ± 360 | 1.00 ± 0.03 | 1200 ± 90 | lower | – | – | – | –
